Molecular target: T1, Der f 2 mite extract (Dermatophagoides farinae, UniProt Q00855)
T1 construct: Add 1.0 ml of 20 ug/ml Der f 2 mite extract; from tissue; host or cells: house dust mite extract (Dermatophagoides farinae)
T1 sequence (Q00855 18-146): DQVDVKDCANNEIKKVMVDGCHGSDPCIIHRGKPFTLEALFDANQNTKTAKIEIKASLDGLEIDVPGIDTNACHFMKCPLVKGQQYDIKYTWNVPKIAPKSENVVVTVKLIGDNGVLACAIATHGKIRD
Test: Efficacy Determination Protocol, ELISA (allergen neutralization)
Assay type: biochemical
Conditions: for Average Absorbance / % of Allergen Remaining: 1.4 wt.% of ion; for Average Absorbance: 490 nm, water control 1.7; for % of Allergen Remaining: Der f 2, normalized to water control = 100
Description: The efficacy of an allergen neutralization composition can be determined by the ELISA protocol. Enzyme-linked immunosorbent assay (“ELISA”) is a highly sensitive assay technique for detection and measurement of antigens or antibodies in solution. The assay uses enzyme-linked antigens or antibodies to amplify an antigen-antibody reaction. A single enzyme-linked antibody-antigen complex can convert orders of magnitude more of colorless substrate molecules into detectable colored products, thus considerably amplifying the original antigen-antibody reaction. The antigen or antibody is adsorbed onto the surface of the well of a microtiter plate, and all the relevant reactions take place in solution inside the well. While the following protocol will be easily understood by those skilled in the art, for a more detailed explanation please see Konishi, E. and Uehara, K. Enzyme-linked immunosorbent assay for quantifying antigens of Dermatophagoides farinae and D. pteronyssinus (Acari: Pyroglyphidae) in house dust samples, 1990, Entomologist Society of America, 27 (6), p. 993-998.
It is understood that those skilled in the art of allergen suppression will be aware of numerous variations to the protocol given below. For example, the monoclonal antibody may be substituted with a similar antibody, for example Der f 1 for Der f 2. But a standard, in this case water, is used and the results for the samples that contain active ingredients are normalized against the standard and the results reported as percentage of allergen remaining That is, the amount of allergen that is not neutralized. Thus, the allergen neutralization results for similar, but not identical antibodies should be substantially the same when normalized to the standard. Both Der f 1 and Der f 2 were tested for various compositions, but Der f 2 was chosen as the standard for the present Efficacy Determination Protocol because it is more difficult to neutralize. To be clear, the values for the % of allergen remaining that are reported in Table I will generally improve (that is, decrease) when tested with Der f 1.
At least two samples are prepared. One sample contains only distilled water and samples of one or more allergen neutralization compositions containing the allergen neutralization active, for example ZnCl2, tannin, etc. The samples are all treated according to the same protocol, and the distilled water sample is used as the control. All samples are prepared as follows:
1) Add 1.0 ml of 20 ug/ml Der f 2 mite extract to 0.8 ml of the sample composition (either the allergen neutralization composition or water for the control). Mix well and let sit for 1 hour at room temp.
2) Add 2.2 ml of 20% skim milk in Phosphate Buffer Saline (PBS).
3) Mix well by vortexing and centrifuge at 12000 rpm (approx. 17000×g) for 1 hour.
4) The supernatant is used for the ELISA protocol.
Each well of a microplate is coated at 4° C. overnight with 100 μl of Der f 2 monoclonal antibody (clone 15E11, from Asahi Breweries., AB-A-4) at a protein concentration of […] of Phosphate Buffer Saline (PBS), pH 7.4 containing 0.1% sodium azide. The monoclonal antibody is discarded and the plate is incubated with 100 μL of 1% BSA PBS containing 0.1% sodium azide for 1 hour. The plate is washed 3 times with PBS containing 0.05% Tween 20 (PBS-T). 100 μl of an allergen sample is added and incubated for 1 hour at 37° C.
Use 3× dilutions of a reference Dermatophagoides farinae crude extract (commercially available from LSL) to make the standard curve. The curve is made using 6.9 nanogram-mite extract equivalent/ml to 5 microgram-mite extract equivalent/ml. Wash plate with PBS-T for 3 times. 100 μl of Horse Radish Peroxidase (HRP) conjugated anti Der f 2 antibody (clone 13A4) is added at 40 ng/ml and the plate is incubated at 37° C. for 1 hour. The plate is then washed with PBS-T 3 times and then washed with water 3 times. […]

[1] = weight % of metal ion in the composition, inferred from Table III

[Cl][Fe][Cl] [FeCl2]
Average Absorbance (pH 2.9): 0.84
% of Allergen Remaining (pH 2.9): 44%

O=S(=O)([O-])[O-].[Fe+2] [FeSO4]
Average Absorbance (pH 3.5): 1.13
% of Allergen Remaining (pH 3.5): 54%

[Cl][Sn][Cl] [SnCl2]
Average Absorbance (pH 2.1): 0.54
% of Allergen Remaining (pH 2.1): 32%
Average Absorbance (pH 3.2): 0.25
% of Allergen Remaining (pH 3.2): 18%
effective amount if 80% removal is necessary [1]: about 1.4%
effective amount to remove 50% of allergens [1]: less than 1.4%

O=S(=O)([O-])[O-].[Sn+2] [SnSO4]
Average Absorbance (pH 2.0): 0.28
% of Allergen Remaining (pH 2.0): 22%

[Cl-].[Cl-].[Zn+2] [ZnCl2, Zinc chloride]
Average Absorbance (pH 3.6): 0.70
% of Allergen Remaining (pH 3.6): 34%
